Entries after “also recorded” stand apart in the source; their conditions may differ.

The subject of one experiment is DNA methyltransferases. The conditions noted are these: ECs and non-EC types; cited from earlier work.
A further experiment deals with ESCs. Nature of the experiment: Effect of HDAC inhibitors on ESC differentiation after LIF removal (FIG. 23). In kind it is cell-based, mouse. The note with it: following LIF removal. From the text: FIG. 23. Effect of HDAC inhibitors on ESC differentiation. […] DAPI, blue.
For another experiment, the system named is histone H3. The experiment is described as follows: Histone H3 methylation in ESCs by Western blotting (FIG. 15). The note with it: mouse ESCs, loading by histone H1. It counts as cell-based. How it is done:
FIG. 15. Histone methylation in VPCs, MPCs and ESCs. A: H3K79me2 is present in MPCs and absent in VPCs. B: Shear stress (SS) induces a 4-5-fold increase in H3K79me2 in mouse ESCs. […] Equal loading is determined on the basis of histone H1.
Western blotting. Genome-wide methylation and acetylation of histone 3 and histone 4 are analyzed. Protein lysates are obtained with Laemmli buffer containing β-mercaptoethanol. Proteins are separated on 15% SDS-PAGE, transferred onto nitrocellulose and exposed to specific antibodies against different histone modifications (H3K9me2/3, H3K27me3, H3K4me2/3, H3K79me3, H4K20me2, H4K5Ac, H4K8Ac, H4K12Ac, H4K16Ac, H3K9Ac, H3K14Ac). Loading conditions are determined by β-actin expression (6, 7, 58, 59). In a similar manner, HDAC expression is quantified in total cell lysates and in nuclear and cytoplasmic lysates (249, 250).

The test system of the next experiment is HDAC. The conditions noted are these: mouse ESCs, nuclear HDAC activity.
The test system of a further experiment is class I and II HDAC. The conditions noted are these: cited from earlier work.
The test system of a further experiment is myocardial hypertrophy. The conditions noted are these: following pressure overload; cited from earlier work.

As for `Nc1ncn([C@@H]2O[C@H](CO)[C@@H](O)[C@H]2O)c(=O)n1` [5-azacytidine], in the experiment on DNA methyltransferases, the “eNOS mRNA” value is given as “induces the upregulation of eNOS mRNA”.

Regarding `Cn1c(/C=C/C(=O)NO)ccc1/C=C/C(=O)c1cccc(F)c1` [MC1568], in the experiment with ESCs, the “differentiation of ESCs into cardiovascular lineages / cardiac cell phenotypes (flk1, CD31, SM22, α-SA)” value was “inhibits the cardiac commitment of ESCs” and the “neuronal differentiation of ESCs (nestin expression)” value (from here on “neuronal differentiation of ESCs”) was “favors neuronal differentiation; also recorded: selective expression of nestin”.

Regarding `Nc1ccccc1NC(=O)c1ccc(CNC(=O)OCc2cccnc2)cc1` [MS27-275], in the experiment on ESCs, the “differentiation of ESCs into cardiovascular lineages / cardiac cell phenotypes (flk1, CD31, SM22, α-SA)” value is recorded as “triggers differentiation of ESCs to cardiac cell phenotypes; also recorded: promotes the preferential differentiation of ESCs into cardiovascular lineages” and the “neuronal differentiation of ESCs” value is “opposes neuronal commitment”.

For `CC(/C=C/C(=O)NO)=C\[C@@H](C)C(=O)c1ccc(N(C)C)cc1` [Trichostatin A], in the experiment with histone H3, the “overall methylation level of histone H3” value is given as “reduces the overall methylation level of histone H3”. In addition, the “increase of HDAC activity early after LIF depletion” value with HDAC was “inhibited”. Besides, the “cell cycle arrest and differentiation” value in the experiment with class I and II HDAC was “induces cell cycle arrest and differentiation”. For the same molecule, the “neuronal differentiation of ESCs” value in the experiment on ESCs is on record as “selective expression of nestin”. The myocardial hypertrophy entry in the experiment on myocardial hypertrophy is on record as “blunts myocardial hypertrophy”.
